{"source": "patent US20200329698A1", "about": "“COMPOSITIONS FOR ORGAN GRAFT PRESERVATION AND METHODS OF USE” (Nobilis Therapeutics, Inc., priority 2019, published 2020)", "tested_on": "Lewis rat lung grafts extracted after cardiac death", "procedure": "Inbred adult male Lewis rats (LEW, RT1^1) weighing 225-250 g were purchased from Harlan, UK and bred in temperature- and humidity-controlled cages in a specific pathogen-free facility at the Chelsea-Westminster Campus, Imperial College London. All animal procedures were carried out in accordance with the United Kingdom Animals (Scientific Procedures) Act of 1986. For cardiac arrest model (DCD donor) in anaesthetized rats, anticoagulation was accomplished by injecting 250 U Heparin in 1 ml saline via the penile vein. Five minutes after heparinization, a laparotomy was performed through a midline incision. A thoracotomy was performed followed by induction of cardiac arrest by external compression of the heart for 5 min. After induction of cardiac arrest, the aorta was closed using a vascular clamp rostral from the heart. The thoracotomy wound was covered with gauze and kept moist with 0.9% NaCl. After 40 minutes in DCD donors, the entire graft, lung or kidney, in the donor was isolated and excised. Lung grafts were flushed through the main pulmonary artery and stored at 4° C. for 16 hours with either control UW solution or UW with Dex (0.1 nM) solution. Lung or kidney grafts were fixed in 4% parafamydehyde and paraffin. Sections of 5-μm thickness were taken from the kidney specimens and haematoxylin & eosin (H&E) staining was carried out. Lung cell morphology in each graft (10 fields in the cortex at ×20 magnifications) was evaluated by an observer blinded to the treatment using an OLYMPUS™ (Watford, UK) BX4 microscope under constant exposure level. The score for each field was calculated from the sum score of 10 areas chosen at a random. For the lung sections, the injury was categorised into Grade 0: normal appearance, negligible damage; Grade 1: mild moderate interstitial congestion and neutrophil leukocyte infiltrations; Grade 2: perivascular oedema formation, partial destruction of pulmonary architecture and moderate cell infiltration; Grade 3: moderate lung alveolar damage and intensive cell infiltration; Grade 4: severe cell infiltration and severe destruction of the pulmonary architecture. For in vivo fluorescence or DAB staining, 25-μm frozen lung sections were incubated with rabbit anti-Rip1 (1:200, SANTA CRUZ BIOTECHNOLOGY®), rabbit anti-Rip3 (1:200, SANTA CRUZ BIOTECHNOLOGY®), mouse anti-HMGB-1 (1:200, Abcam), Goat anti-TLR-4 (1:200, SANTA CRUZ BIOTECHNOLOGY®), rabbit anti-Nrf-2 (1:200, SANTA CRUZ BIOTECHNOLOGY®), mouse anti-SOD-1 (1:200, Abcam), mouse anti-NQO-1 (1:200 Abcam), rabbit anti-3-nitrotyrosine (1:200, Abcam) and rabbit anti-4-hydroxynonenal (1:200, Abcam) at 4° C. overnight. After washing with PBST, the slides were incubated with fluorochrome-conjugated secondary antibodies (MILLIPORE™, UK). For double-labelled immunofluorescence, lung samples were incubated with the first primary antibody overnight, followed by the first secondary antibody, and then the second primary antibody and the second secondary antibody. The slides were counterstained with nuclear dye DAPI and mounted with […]® Mounting Medium (Vector lab, USA). Sections were examined using an OLYMPUS™ (Watford, UK) BX4 microscope under constant exposure level. Immunofluorescence was quantified using ImageJ (National Institutes of Health, Maryland, USA) and the background was subtracted. Ten representative regions per section (in vivo) or field (in vitro) were randomly selected by an assessor blinded to the treatment groups. Values were then calculated as percentages of the mean value for naïve controls and expressed as percentage fluorescence intensity. Lung alveolar cell death was detected by the in situ TUNEL assay (MILLIPORE™) according to the manufacturer's instructions. TUNEL nuclei were visualized by green FITC fluorescence. Tumor necrosis factor-α (TNF-α) in the culture medium were detected by ELISA (Human TNF-α ELISA kits, INVITROGEN®, UK). Rat lung tissue and serum TNF-α were measured by ELISA (Rat TNF-α ELISA kits, INVITROGEN®, UK). […]", "key": {"[1]": {"conditions": "Dex 0.1 nM in UW at 4° C., CI 16 hr, vs vehicle"}, "[2]": {"conditions": "Dex-saturated UW, CI 16 h, p<0.001"}, "[3]": {"conditions": "Dex-saturated UW, CI 16 h, p<0.05"}}}
{"compound": "Cc1cccc([C@H](C)c2cnc[nH]2)c1C", "note": "[Dexmedetomidine]", "values": [{"measurement": "HMGB-1 release", "setting": "[1]", "result": "reduction"}, {"measurement": "TLR-4 activation (fluorescent intensity)", "setting": "[1]", "result": "reduction"}, {"measurement": "cell death (TUNEL staining)", "setting": "[1]", "result": "reduced cell death"}, {"measurement": "concentration of HMGB-1 in lung graft tissue (ELISA)", "setting": "[1]", "result": "significantly reduced"}, {"measurement": "concentration of IL-1β in lung graft tissue (ELISA)", "setting": "[1]", "result": "significantly reduced"}, {"measurement": "concentration of TNF-α in lung graft tissue (ELISA)", "setting": "[1]", "result": "significantly reduced"}, {"measurement": "expression of necroptosis marker RIP1 (fluorescent intensity)", "setting": "[1]", "result": "significantly reduced"}, {"measurement": "expression of necroptosis marker RIPS (RIPK3 fluorescent intensity)", "setting": "[1]", "result": "significantly reduced"}, {"measurement": "lung morphology (H&E, lung injury scoring)", "setting": "[1]", "result": "marked improvement in morphology"}, {"measurement": "expression of 3-nitrotyrosine (fluorescent intensity)", "setting": "Dex-saturated UW, CI 16 h, vs control group, p<0.001", "result": "significant reduction"}, {"measurement": "expression of 4-hydroxynonenal (fluorescent intensity)", "setting": "Dex-saturated UW, CI 16 h, vs control group, p<0.05", "result": "significant reduction"}, {"measurement": "expression of Nrf-2 (fluorescent intensity)", "setting": "[2]", "result": "significant increase"}, {"measurement": "expression of SOD-1 (fluorescent intensity)", "setting": "[2]", "result": "significant increase"}, {"measurement": "lung tissue GSH/GSSG ratio", "setting": "[2]", "result": "significant increase"}, {"measurement": "lung tissue GSSG level", "setting": "Dex-saturated UW, CI 16 h, p<0.01", "result": "significant decrease"}, {"measurement": "expression of NQO-1 (fluorescent intensity)", "setting": "[3]", "result": "significant increase"}, {"measurement": "lung tissue GSH level", "setting": "[3]", "result": "significant increase"}]}
